Measured values as given in paper PMC9867442, “Indole Derivatives Bearing Imidazole, Benzothiazole-2-Thione or Benzoxazole-2-Thione Moieties—Synthesis, Structure and Evaluation of Their Cytoprotective, Antioxidant, Antibacterial and Fungicidal Activities” (Molecules, 2023).

Columns and labels:
Pseudomonas fluorescens = test: Antibacterial well-diffusion method; assay type: cell-based; conditions: 0.1 mL of compound in DMSO, 48 h, 27 °C
Method: (§1) The antimicrobial properties of compounds were determined against selected bacteria: Micrococcus luteus, Bacillus subtilis, Escherichia coli and Pseudomonas fluorescens which came from the collection of Pure Cultures of the Facility of Microbiology of the Department of Soil Science and Microbiology of the Poznan University of Life Sciences. The well-diffusion method was used to evaluate the antimicrobial properties of compounds. 6 mL each of liquidized broth medium was poured into sterile Petri dishes and allowed to solidify. After which, two sterile glass rings with a diameter of 0.5 cm were placed on the surface of each plate. Then 20 mL each of liquid broth medium containing suspensions of the tested bacterial strains at a density of 10^7 cells/cm3, obtained from 48-h cultures on broth […], was introduced. After the medium solidified, the glass rings were removed with a pencil, obtaining two wells on each plate. 0.1 mL of compound dissolved in pure dimethyl sulphoxide was introduced into one well, and 0.1 mL of pure dimethyl sulphoxide was introduced into the other well, which was as a control. Each compound was tested in four replicates. The plates were incubated for 48 h in a thermostat at 27 °C for M. luteus, B. subtilis and P. fluorescens cultures, and the E. coli culture at 37 °C. At the end of the incubation, the diameters of growth inhibition of the tested strains were measured using calipers.

Bacillus subtilis = test: Antibacterial well-diffusion method; assay type: cell-based; conditions: 0.1 mL of compound in DMSO, 48 h, 27 °C
Method: as §1

Escherichia coli = test: Antibacterial well-diffusion method; assay type: cell-based; conditions: 0.1 mL of compound in DMSO, 48 h, 37 °C
Method: as §1

Micrococcus luteus = test: Antibacterial well-diffusion method; assay type: cell-based; conditions: Micrococus luteus, 0.1 mL of compound in DMSO, 48 h, 27 °C
Method: as §1

[1] = Ferrous ions (Fe2+) chelating activity (ferrozine); conditions: 0.1 mg/mL, 10 min, room temperature
Method: Ferrous ions (Fe^2+) chelating activity was evaluated by inhibition of the formation of Fe^2+-ferrozine complex after incubation of the compounds tested with Fe^2+. The Fe^2+-chelating ability of compounds tested was determined by the absorbance of the ferrous ion-ferrozine complex at 562 nm. In brief, 0.1 mg/mL concentration of the compounds tested in 0.2 mL ethyl alcohol were added to a solution of 0.6 mM FeCl2 (0.05 mL). EDTA (ethylenediaminetetraacetic acid) was used as the standard EDTA chelating agent. The reaction was started by the addition of 5 mM ferrozine (0.05 mL) in ethyl alcohol and shaken vigorously immediately. The samples were stored for 10 min at room temperature (~22 °C). Following incubation, the absorbance (Abs) of the solutions was measured at 562 nm in a spectrophotometer. The percentage of inhibition of ferrozine—Fe^2+ complex formation was calculated using the equation: Fe^2+ chelating effect (%) = [1 − (Abs1/Abs0)] × 100% where Abs0 is the absorbance of the sample without the tested compound and Abs1 is the absorbance in the presence of the compound tested. Each sample was made in triplicate, and three independent experiments were performed.

Poria placenta (Pp) = test: Antifungal agar-plate method; assay type: cell-based; conditions: for inhibition of growth at 0.0001 % / inhibition of growth at 0.001 % / inhibition of growth at 0.01 % / inhibition of growth at 0.1 %: read-out: Antifungal activity (inhibition of mycelial growth)
Method: (§2) Fungal strains: Coriolus versicolor (Cv), Poria placenta (Pp), Coniophora puteana (Cp) and Gloeophyllum trabeum (Gt) were used as a test organism for the experimental determination of the antifungal activity of 1–11. The fungus were obtained from the collection of the Department of Wood Chemical Technology, Faculty of Forestry and Wood Technology, Poznań, University of Life Sciences, Poland. The fungal growth rates were measured in 90 mm-diameter plastic dishes using the agar-plate method, described by Ważny and Thorton. Five concentrations of gramine and its derivatives in the range of 0.1% to 0.00001% were studied. The compound was applied on the agar (2% agar and 5% malt-extract) prepared on the Petri dish and previously autoclaved. The combination of the compound and fungus was repeated three times. Given sample was centrally inoculated with a 5 mm diameter disc taken from the submargin of 5-day-old malt agar plates. The plates were incubated in darkness at 21 ± 2 °C and 70 ± 5% relative air humidity. The growth duration was determined by the total coverage of the reference plate. The radius of the area covered by the fungus compared with the reference agar plate was employed to calculate the effective doses, ED50, of preservative concentrations retarding the fungal growth rate by 50%.

[2] = tested on: Gloeophyllum trabeum (Gt); test: Antifungal agar-plate method; assay type: cell-based; conditions: for inhibition of growth at 0.0001 % / inhibition of growth at 0.001 % / inhibition of growth at 0.01 % / inhibition of growth at 0.1 %: Gloeophyllum trabeum, read-out: Antifungal activity (inhibition of mycelial growth)
Method: as §2

Coniophora puteana (Cp) = test: Antifungal agar-plate method; assay type: cell-based; conditions: for inhibition of growth at 0.0001 % / inhibition of growth at 0.001 % / inhibition of growth at 0.01 % / inhibition of growth at 0.1 %: Coniophora puteana, read-out: Antifungal activity (inhibition of mycelial growth)
Method: as §2

Coriolus versicolor (Cv) = test: Antifungal agar-plate method; assay type: cell-based; conditions: for inhibition of growth at 0.0001 % / inhibition of growth at 0.001 % / inhibition of growth at 0.01 % / inhibition of growth at 0.1 %: Trametes versicolor, read-out: Antifungal activity (inhibition of mycelial growth)
Method: as §2

Molecule | Zone of Growth Inhibition (Pseudomonas fluorescens) [mm] | Zone of Growth Inhibition (Bacillus subtilis) [mm] | Zone of Growth Inhibition (Escherichia coli) [mm] | Zone of Growth Inhibition (Micrococcus luteus) [mm] | inhibition of growth at 0.0001 % (Poria placenta (Pp); concentration 0.0001%) [%] | inhibition of growth at 0.001 % (Poria placenta (Pp); concentration 0.001%) [%] | inhibition of growth at 0.01 % (Poria placenta (Pp); concentration 0.01%) [%] | inhibition of growth at 0.1 % (Poria placenta (Pp); concentration 0.1%) [%] | inhibition of growth at 0.0001 % ([2]; concentration 0.0001%) [%] | inhibition of growth at 0.001 % ([2]; concentration 0.001%) [%] | inhibition of growth at 0.01 % ([2]; concentration 0.01%) [%] | inhibition of growth at 0.1 % ([2]; concentration 0.1%) [%] | inhibition of growth at 0.0001 % (Coniophora puteana (Cp); concentration 0.0001%) [%] | inhibition of growth at 0.001 % (Coniophora puteana (Cp); concentration 0.001%) [%] | inhibition of growth at 0.01 % (Coniophora puteana (Cp); concentration 0.01%) [%] | inhibition of growth at 0.1 % (Coniophora puteana (Cp); concentration 0.1%) [%] | inhibition of growth at 0.0001 % (Coriolus versicolor (Cv); concentration 0.0001%) [%] | inhibition of growth at 0.001 % (Coriolus versicolor (Cv); concentration 0.001%) [%] | inhibition of growth at 0.01 % (Coriolus versicolor (Cv); concentration 0.01%) [%] | inhibition of growth at 0.1 % (Coriolus versicolor (Cv); concentration 0.1%) [%] | further results
3-((2-phenyl-2,5-dihydro-1H-imidazol-1-yl)methyl)-1H-indole [Compound 8] | 0 | 3.7 | 5 | 8.6 |  |  |  |  |  |  |  |  |  |  |  |  |  |  |  |  | Chelating activity [1]: 40%; Antifungal activity (inhibition of mycelial growth) (Poria placenta (Pp); concentration 0.0001%): 0%; Antifungal activity (inhibition of mycelial growth) (Poria placenta (Pp); concentration 0.001%): 17%; Antifungal activity (inhibition of mycelial growth) (Poria placenta (Pp); concentration 0.01%): 45%; Antifungal activity (inhibition of mycelial growth) (Poria placenta (Pp); concentration 0.1%): 100%; Antifungal activity (inhibition of mycelial growth) ([2]; concentration 0.0001%): 13%; Antifungal activity (inhibition of mycelial growth) ([2]; concentration 0.001%): 18%; Antifungal activity (inhibition of mycelial growth) ([2]; concentration 0.01%): 53%; Antifungal activity (inhibition of mycelial growth) ([2]; concentration 0.1%): 100%; Antifungal activity (inhibition of mycelial growth) (Coniophora puteana (Cp); concentration 0.0001%): 0%; Antifungal activity (inhibition of mycelial growth) (Coniophora puteana (Cp); concentration 0.001%): 0%; Antifungal activity (inhibition of mycelial growth) (Coniophora puteana (Cp); concentration 0.01%): 48%; Antifungal activity (inhibition of mycelial growth) (Coniophora puteana (Cp); concentration 0.1%): 100%; Antifungal activity (inhibition of mycelial growth) (Coriolus versicolor (Cv); concentration 0.0001%): 7%; Antifungal activity (inhibition of mycelial growth) (Coriolus versicolor (Cv); concentration 0.001%): 13%; Antifungal activity (inhibition of mycelial growth) (Coriolus versicolor (Cv); concentration 0.01%): 41%; Antifungal activity (inhibition of mycelial growth) (Coriolus versicolor (Cv); concentration 0.1%): 100%
CN(C)Cc1c[nH]c2ccccc12 [Compound 1, gramine, reference compound] | 13 | 0 | 0 | 0 | 14 | 25 | 40 | 100 | 12 | 12 | 17 | 100 | 41 | 40 | 51 | 100 | 18 | 22 | 35 | 100 | 
c1ccc2c(Cn3ccnc3)c[nH]c2c1 [Compound 2] | 14.7 | 3.3 | 4 | 21 | 0 | 20 | 47 | 100 | 20 | 20 | 40 | 100 | 0 | 0 | 41 | 100 | 0 | 19 | 33 | 100 | 
CCc1nccn1Cc1c[nH]c2ccccc12 [Compound 4, 3-((2-ethyl-1H-imidazol-1-yl)methyl)-1H-indole] | 3 | 4.3 | 3.8 | 8.8 | 16 | 18 | 32 | 100 | 8 | 11 | 30 | 100 | 13 | 15 | 37 | 100 | 6 | 13 | 43 | 100 | melting point: 183 to 186 °C
CC(C)c1nccn1Cc1c[nH]c2ccccc12 [Compound 5, 3-((2-isopropyl-1H-imidazol-1-yl)methyl)-1H-indole] | 0 | 1.8 | 3 | 3 | 1 | 6 | 21 | 100 | 12 | 16 | 17 | 100 | 13 | 14 | 26 | 100 | 13 | 12 | 43 | 100 | melting point: 183 to 185 °C
CCc1nc(C)cn1Cc1c[nH]c2ccccc12 [Compound 6, 3-((2-ethyl-4-methyl-1H-imidazol-1-yl)methyl)-1H-indole] | 2.3 | 2.4 | 3.5 | 6 | 4 | 0 | 41 | 100 | 13 | 9 | 27 | 100 | 40 | 37 | 49 | 100 | 19 | 19 | 44 | 100 | melting point: 186 to 189 °C
Clc1ncn(Cc2c[nH]c3ccccc23)c1Cl [Compound 7, 3-((4,5-dichloro-1H-imidazol-1-yl)methyl)-1H-indole] | 0 | 8.7 | 4.3 | 5 | 0 | 35 | 78 |  | 28 | 51 | 91 | > 90 | 0 | 46 | 74 |  | 0 | 23 | 96 | > 90 | Chelating activity [1]: no chelating activity
